Series [1] in a line: Metabolite profiling of plasma, urine, feces, intravenous dose. The class given is in vivo, Sprague Dawley rats. The settings on record: intravenous 10 mg/kg. The protocol: Nine male Sprague Dawley rats (Group 1) were designated for the pharmacokinetic phase, 3 male Sprague Dawley rats (Group 2) for the excretion mass balance phase, and 7 male Sprague Dawley rats (Group 3) and 9 male Long Evans rats (Group 4) for the tissue distribution phase. All animals received a single intravenous dose of [^14C]-25HC3S at 10 mg/kg and a target radioactivity of 225 μCi/kg. Blood samples were collected from all Group 1 animals at approximately 0.083, 0.25, 0.5, 1, 2, 4, 8, 12, 24, 48, and 72 hours post-dose. Urine and feces were collected from all Group 2 animals periodically through 168 hours post-dose. […] Following blood collection, animals were euthanized by CO2 inhalation and carcasses frozen in a dry ice/hexane bath for processing by quantitative whole body autoradiography. Whole blood, plasma, urine, feces, cage rinse, and cage wash were analyzed for total radioactivity by liquid scintillation counting.

The next series addresses DNMT1 (Homo sapiens, UniProt P26358). Put plainly: DNMT1 activity assay (Poly(dI-dC) substrate, ^3H-SAM). The class given is biochemical. The settings on record: for EC50: read-out: EC50, activation of DNMT-1.
Series [2] in a line: Metabolite profiling of plasma and feces, oral dose. The class given is in vivo, rats. The protocol:
Radiolabeled components in plasma and feces extracts were profiled and identified using radio-high performance liquid chromatography (HPLC) and high performance liquid chromatography/mass spectrometry (HPLC/MS) methods.
Plasma pools were prepared for Group 1 (75 mg/kg, [^14C]-25HC3S) samples collected at 2, 4, and 6 hours post-dose. […] One metabolite M29 was identified as 25-hydroxycholesterol with 37% ROI and a concentration of 1233 ng-equiv./g.
Feces pools were prepared for Group 2 (75 mg/kg, [^14C]-25HC3S) samples collected from 0 to 24, 24 to 48, 48 to 72, 72 to 96, 96 to 120, 120 to 144, and 144 to 168 hours post-dose. A total of eleven metabolites were identified. None of the metabolites were present at ≥5% of dose. Metabolites present at 2-5% of dose were M1 (4.5% of total dose and 1%-69% ROI), M3 (4.6% of total dose and 1%-44% ROI), M4 (2.0% of total dose and 0%-10% ROI), M8 (3.1% of total dose and 1%-46% ROI), […], and M30 (3.3% of total dose and 0%-5% ROI).

For the next series, the target named is DNMT3b (Homo sapiens, UniProt Q9UBC3). In words: DNMT3b activity assay (Lambda DNA substrate, ^3H-SAM). The class given is biochemical.
The next series has as its target DNMT3a (Homo sapiens, UniProt Q9Y6K1). Put plainly: DNMT3a activity assay (Lambda DNA substrate, ^3H-SAM). The class given is biochemical.
The test system of a further series is DNMT1/3a/3b. Put plainly: Enzyme kinetic study, DNMT1/3a/3b activities overall. Particulars: for effect on enzymatic activities: controls. The class given is biochemical.
Where [3] appears, read: Sprague Dawley, rat, in vivo, po, 75 mg/kg.

Sequence of DNMT1 (P26358 whole entry): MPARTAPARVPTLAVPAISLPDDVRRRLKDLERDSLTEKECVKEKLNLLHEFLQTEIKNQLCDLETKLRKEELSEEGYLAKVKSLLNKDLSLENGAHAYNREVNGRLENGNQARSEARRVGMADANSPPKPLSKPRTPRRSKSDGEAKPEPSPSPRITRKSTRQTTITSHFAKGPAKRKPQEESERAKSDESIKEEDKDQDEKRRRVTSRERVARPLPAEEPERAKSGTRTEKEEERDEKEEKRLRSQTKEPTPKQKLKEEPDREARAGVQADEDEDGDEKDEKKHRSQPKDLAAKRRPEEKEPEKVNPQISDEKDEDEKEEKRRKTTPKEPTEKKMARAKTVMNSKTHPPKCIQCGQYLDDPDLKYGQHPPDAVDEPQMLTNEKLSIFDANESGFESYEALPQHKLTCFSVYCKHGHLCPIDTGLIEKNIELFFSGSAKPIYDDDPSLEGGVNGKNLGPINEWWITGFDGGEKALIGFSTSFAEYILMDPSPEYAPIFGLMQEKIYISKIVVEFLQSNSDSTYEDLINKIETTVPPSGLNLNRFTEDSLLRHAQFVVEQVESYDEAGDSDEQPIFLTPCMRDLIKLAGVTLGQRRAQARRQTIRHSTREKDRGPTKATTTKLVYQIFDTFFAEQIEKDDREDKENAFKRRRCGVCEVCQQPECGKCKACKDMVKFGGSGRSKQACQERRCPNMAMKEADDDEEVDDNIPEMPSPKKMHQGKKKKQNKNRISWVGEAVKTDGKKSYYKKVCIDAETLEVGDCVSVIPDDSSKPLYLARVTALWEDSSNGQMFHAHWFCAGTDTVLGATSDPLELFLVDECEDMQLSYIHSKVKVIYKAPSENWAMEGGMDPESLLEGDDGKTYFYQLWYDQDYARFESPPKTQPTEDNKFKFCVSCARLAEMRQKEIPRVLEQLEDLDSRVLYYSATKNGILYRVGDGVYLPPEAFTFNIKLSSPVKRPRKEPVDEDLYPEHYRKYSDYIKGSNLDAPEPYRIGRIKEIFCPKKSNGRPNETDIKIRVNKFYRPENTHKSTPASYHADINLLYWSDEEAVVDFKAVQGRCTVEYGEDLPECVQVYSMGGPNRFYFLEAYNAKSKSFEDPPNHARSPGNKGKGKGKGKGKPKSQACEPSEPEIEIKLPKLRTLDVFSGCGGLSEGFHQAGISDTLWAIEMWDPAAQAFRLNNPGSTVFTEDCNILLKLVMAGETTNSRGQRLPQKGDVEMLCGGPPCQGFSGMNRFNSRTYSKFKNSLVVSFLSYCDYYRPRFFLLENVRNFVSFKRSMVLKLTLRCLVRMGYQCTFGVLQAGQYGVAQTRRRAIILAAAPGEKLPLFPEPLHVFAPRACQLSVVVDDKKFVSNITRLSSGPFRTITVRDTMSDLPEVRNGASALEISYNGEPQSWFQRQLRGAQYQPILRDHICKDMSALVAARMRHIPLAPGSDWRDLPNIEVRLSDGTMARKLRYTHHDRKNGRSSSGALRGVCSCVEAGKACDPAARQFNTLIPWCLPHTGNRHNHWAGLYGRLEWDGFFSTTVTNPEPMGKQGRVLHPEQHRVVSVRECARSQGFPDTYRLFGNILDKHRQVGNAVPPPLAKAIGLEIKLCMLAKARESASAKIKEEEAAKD
Sequence of DNMT3a (Q9Y6K1 whole entry, looked up): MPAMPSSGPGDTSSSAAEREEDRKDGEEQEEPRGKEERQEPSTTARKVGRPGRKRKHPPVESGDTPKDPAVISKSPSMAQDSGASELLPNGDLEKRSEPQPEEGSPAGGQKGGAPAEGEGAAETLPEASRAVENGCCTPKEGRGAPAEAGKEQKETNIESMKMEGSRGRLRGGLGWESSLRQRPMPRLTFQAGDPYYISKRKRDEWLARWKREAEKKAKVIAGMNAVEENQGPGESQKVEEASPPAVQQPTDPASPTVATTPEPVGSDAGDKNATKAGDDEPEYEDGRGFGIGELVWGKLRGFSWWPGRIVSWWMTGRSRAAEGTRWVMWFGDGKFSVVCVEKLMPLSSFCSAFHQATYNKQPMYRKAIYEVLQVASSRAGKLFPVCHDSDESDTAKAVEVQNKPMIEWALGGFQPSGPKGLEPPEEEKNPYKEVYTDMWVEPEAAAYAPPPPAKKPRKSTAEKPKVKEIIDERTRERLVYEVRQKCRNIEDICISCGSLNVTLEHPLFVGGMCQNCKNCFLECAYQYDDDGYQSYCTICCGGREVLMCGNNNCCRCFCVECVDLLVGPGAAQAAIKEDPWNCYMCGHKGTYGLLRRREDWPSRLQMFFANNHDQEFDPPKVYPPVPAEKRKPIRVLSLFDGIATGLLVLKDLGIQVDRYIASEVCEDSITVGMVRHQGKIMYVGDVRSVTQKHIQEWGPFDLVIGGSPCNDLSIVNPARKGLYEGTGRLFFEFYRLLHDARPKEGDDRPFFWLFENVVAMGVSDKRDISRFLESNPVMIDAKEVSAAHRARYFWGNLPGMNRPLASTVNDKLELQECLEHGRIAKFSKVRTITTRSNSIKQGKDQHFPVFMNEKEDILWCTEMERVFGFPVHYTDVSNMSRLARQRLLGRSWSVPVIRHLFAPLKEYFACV
Procedure for DNMT1/3a/3b: (§1) For the DNMT1 activity assay, the substrate solution, 0.001 mg/ml Poly(dI-dC):Poly(dI-dC) in 50 mM Tris-HCl, pH 7.5, 50 mM NaCl, 5 mM EDTA, 5 mM DTT, 1 mM PMSF, 5% glycerol, 0.01% Brij35, 1% DMSO was used. For the DNMT3a/3b activity assay, 0.0075 mg/ml Lambda DNA in 50 mM Tris-HCl, pH 7.5, 50 mM NaCl, 5 mM EDTA, 5 mM DTT, 1 mM PMSF, 5% glycerol, 1% DMSO, was used. The indicated DNMT1, DNMT3a, or DNMT3b was added to the appropriate substrate solution and gently mixed. […] The mixtures were first incubated for 15 min, then ^3H-SAM was added to the reaction mixture to initiate the reaction, and the mixture was incubated for 60 min at 30° C. Following incubation, the reaction mixture was finally transferred to filter-paper for detection of radioactivity counts.
Procedure for DNMT3a: as §1
Procedure for DNMT3b: as §1

As to `C[C@H](CCCC(C)(C)O)[C@H]1CC[C@H]2[C@@H]3CC=C4C[C@@H](O)CC[C@]4(C)[C@H]3CC[C@]12C` [25HC, 25-Hydroxycholesterol, reference compound], the “detection in plasma, urine, or feces samples” value in series [1] is “Neither desmosterol sulfate nor 25-hydroxycholesterol was detected”. At DNMT1, the “activation of DNMT-1 activity” value is on record as 8 fold and the concentration giving a half-maximal response (EC50) came to 3.5 µM. Moreover, in series [2] (setting [3]), the “% of total dose in feces” value is recorded as 1.9 % of total dose and the ROI in feces is listed as 0-2%. Besides, in series [2] (Sprague Dawley, rat, in vivo, po, 75 mg/kg, 2 h), the “relative observed intensity (ROI) in plasma” value stood at 37%.
As to `CC(CO)CCC[C@@H](C)[C@H]1CC[C@H]2[C@@H]3CC=C4C[C@@H](OS(=O)(=O)O)CC[C@]4(C)[C@H]3CC[C@]12C` (stereo partly drawn) [27HC3S, 5-cholesten-3β, 27-diol 3-sulfate], the 50% inhibitory concentration (IC50) against DNMT3b is 2.68 µM; at DNMT1, 3.58 µM; against DNMT3a it was 8.88 µM.
In the case of `C[C@@H](CO)CCC[C@@H](C)[C@H]1CC[C@H]2[C@@H]3CC=C4C[C@@H](O)CC[C@]4(C)[C@H]3CC[C@]12C` [27HC, 27-Hydroxycholesterol], the “effect on other enzymes” value with DNMT1/3a/3b (enzymes other than DNMT-1) is listed as “no effect”. The EC50 at DNMT1 was found to be 33 µM.
Regarding `Nc1ncnc2c1ncn2[C@@H]1O[C@H](CSCC[C@H](N)C(=O)O)[C@@H](O)[C@H]1O` [SAH, S-adenosyl homocysteine], the inhibition at 1 µM at DNMT1 (read-out: inhibition of DNMT1 activity) turned out to be 95%.
For the compound `CC(C)CCC[C@@H](C)[C@H]1CC[C@H]2[C@@H]3CC=C4C[C@@H](OS(=O)(=O)O)CC[C@]4(C)[C@H]3CC[C@]12C` [Xol3S, 5-cholesten-3β-ol, 3-sulfate, reference compound], the “effect on enzymatic activities” value in the series with DNMT1/3a/3b is “did not significantly affect”. Moreover, the IC50 against DNMT3a was determined as 82 µM.
For the compound `CC(C)CCC[C@@H](C)[C@H]1CC[C@H]2[C@@H]3CC=C4C[C@@H](O)CC[C@]4(C)[C@H]3CC[C@]12C` [Xol, Cholesterol], the “effect on enzymatic activities” value with DNMT1/3a/3b is given as “did not significantly affect”.
Take desmosterol sulfate: the “detection in plasma, urine, or feces samples” value in series [1] is “Neither desmosterol sulfate nor 25-hydroxycholesterol was detected”. Further, the “presence in plasma or feces samples” value in series [2] (oral 75 mg/kg) is given as “not found”.

One may read the EC50 as the concentration that produces a half-maximal response. The IC50 is the concentration at which inhibition is half-maximal. A low value points to greater potency in that assay. The inhibition is the drop in the measured response relative to a control, in per cent.

The record behind these values is US20230218639A1, “USE OF OXYGENATED CHOLESTEROL SULFATES FOR TREATING NEUROLOGICAL CONDITIONS, NEURODEGENERATIVE DISEASES, AND ADDICTION” (Durect Corporation, priority 2020, published 2023).
